This is an account of results in patent US10709718B2, “Inhibitors of diacylglycerol O-acyltransferase 1 (DGAT-1) and uses thereof” (Metabasis Therapeutics, Inc., priority 2009, dated 2020).

One data set has as its target hDGAT1 (Homo sapiens (Human), UniProt O75907). Nature of the data set: Inhibition of human microsomal DGAT activity (14C-TAG formation, intestinal microsomes). Type of data set: biochemical. As for the experimental part: The inhibition of DGAT-1 activity can be assessed in intestinal microsome preparations by monitoring the incorporation of radiolabeled fatty acyl-CoA into […].
Methods: Commercial microsomal preparations containing 60 ug of protein are incubated in assay buffer [20 uM 1,2-didecanloyl glycerol, 5 uM ^14C decanoyl-CoA, 5 mM MgCl2, 0.4% BSA, 0.1% dimethyl sulfoxide (DMSO), 50 mM HEPES-pH 7.5] in the presence of varying concentrations of inhibitors that are dispensed from 100% DMSO stock solutions. Final assay volumes are 200 uL. Reactions are carried out for 45 minutes in 96-well polystyrene microtiter plates at ambient temperature. Following the ambient temperature incubation, assay mixtures are applied to a 96-well filter plate (Catalog # MSHVN4510, Millipore Inc.; Billerica, Mass.) under vacuum. The filter plate is pre-equilibrated with 100 uL of 70% ethanol followed by 200 uL of assay buffer. […] De novo ^14C-TAG formed in the assay and trapped on the filters is quantified with use of a liquid scintillation counter (Model # LS6500 Beckman Coulter, Inc.; Fullerton, Calif.).

A short description of data set [1]: Plasma pharmacokinetics and oral bioavailability in rats. Type of data set: in vivo, rat. The note with it: male Sprague Dawley rats, 5 mg/kg, LOQ 0.001 ug/mL. Here is the method: Pharmacokinetic studies in rats are useful for the identification of DGAT-1 inhibitors that have low oral bioavailability and show low systemic exposure (i.e. low circulating levels in plasma).
Methods: Groups of male Sprague Dawley rats (200-250 g) (n=3/group) were administered either an IV bolus (1% Tween-80, pH adjusted to 7, vehicle) or an oral gavage (50% PEG-200 in 1% Tween-80 vehicle) of 5 mg/kg of each DGAT-1 inhibitor. Blood (EDTA) was collected by tail nick at 0.5, 1, 2, 4, 8, 10-12 and 24 hr post dose. Following centrifugation of the blood to obtain plasma, the samples were analyzed by LC-MS/MS method for active metabolite. The pharmacokinetic parameters were calculated by noncompartmental analysis of the plasma concentration-time profile of the active metabolite. The oral bioavailability was determined by dividing the dose-normalized plasma AUC value of the active metabolite following oral administration of the DGAT-1 inhibitor by the plasma AUC value of the active metabolite after IV bolus administration.

In the next data set the test system is Sprague Dawley rats. Nature of the data set: In vivo assay for intestinal triglyceride export (serum TAG after olive oil gavage). On the set-up: species or system rat. As to conditions: oral administration, doses in the range of 0.1 to 30 mg/kg. As for the experimental part:
The following screen can be used to evaluate the effects of DGAT-1 inhibitors on the export of dietary TAGs from the intestine to the circulation in rodents (male Sprague Dawley rats or C57BL/6 mice).
Methods: Animals (housed 2/cage) are fasted overnight, and dosed (PO) the next day with vehicle (1% Tween-80) or test compound at doses ranging from 0.01 to 30 mg/kg, followed by an oral gavage of olive oil. Blood samples are taken at baseline and at appropriate intervals over the course of 4 hours. Serum TAG levels are determined using the Infinity triglyceride reagent per the manufacturer's instructions.

Setting [2] is: microsomal preparation, 14C decanoyl-CoA, 45 min, ambient temperature.

The structures appear in SMILES notation. Read-outs that look alike come from different tables or passages of the source. Bounds are passed on as bounds.

Sequence of hDGAT1 (O75907 whole entry): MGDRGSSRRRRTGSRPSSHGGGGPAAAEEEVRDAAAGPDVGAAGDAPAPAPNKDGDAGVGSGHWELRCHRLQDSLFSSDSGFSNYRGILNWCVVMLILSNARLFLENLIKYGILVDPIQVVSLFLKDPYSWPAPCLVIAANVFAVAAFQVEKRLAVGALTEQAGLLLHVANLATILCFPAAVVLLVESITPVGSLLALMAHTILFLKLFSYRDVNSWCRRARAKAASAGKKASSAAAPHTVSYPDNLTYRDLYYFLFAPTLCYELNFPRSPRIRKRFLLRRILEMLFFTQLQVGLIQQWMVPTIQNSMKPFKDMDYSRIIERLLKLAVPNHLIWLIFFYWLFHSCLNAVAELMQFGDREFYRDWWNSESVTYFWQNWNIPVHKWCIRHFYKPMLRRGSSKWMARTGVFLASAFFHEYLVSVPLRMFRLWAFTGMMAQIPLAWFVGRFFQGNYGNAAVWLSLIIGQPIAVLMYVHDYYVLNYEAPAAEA

For the compound `CC1(C)Oc2ncnc(N)c2N=C1c1ccc([C@H]2CC[C@H](OP(=O)(O)c3ccccc3)CC2)cc1` [Compound 14], the IC50 (as a rule, the point on the concentration scale where inhibition reaches its midpoint) on hDGAT1 (setting [2]) is less than 10 nM.
`CC1(C)Oc2ncnc(N)c2N=C1c1ccc(C2CCC(OP(=O)(O)OC3CCCC3)CC2)cc1` (stereo not shown) [Compound 10] had an IC50 against hDGAT1 (setting [2]) of less than 10 nM.
At hDGAT1 (setting [2]), `CC1(C)Oc2ncnc(N)c2N=C1c1ccc([C@H]2CC[C@H](OP(=O)(O)c3ccsc3)CC2)cc1` [Compound 20] showed an IC50 of less than 10 nM.
Consider `CP(=O)(O)[C@@H]1CCC[C@H]1C(=O)c1ccc(-c2ccc(NC(=O)Nc3ccccc3)cc2)cc1` [Compound 2], for which, in data set [1], the Cmax (as a rule, the peak of the concentration-time curve) turned out to be 5 ng/mL. In addition, the “AUC0-4h of serum TAGs” value in the data set on Sprague Dawley rats is “reduced”.
`CCOP(=O)(O)OC1CCC(c2ccc(C3=Nc4c(N)ncnc4OC3(C)C)cc2)CC1` (stereo not shown) [Compound 9] came in with an IC50 against hDGAT1 of less than 10 nM.
The compound `CC1(C)Oc2ncnc(N)c2N=C1c1ccc([C@H]2CC[C@H](CP(C)(=O)O)CC2)cc1` [Compound 1] showed a Cmax in data set [1] of 9 ng/mL. The “AUC0-4h of serum TAGs” value in the data set with Sprague Dawley rats is on record as “reduced”. At hDGAT1 (setting [2]), this compound gave an IC50 of less than 10 nM.
At hDGAT1 (setting [2]), `CC1(C)Oc2ncnc(N)c2N=C1c1ccc([C@H]2CC[C@H](OP(=O)(O)Cc3ccc(C(=O)O)cc3)CC2)cc1` [Compound 17] displayed an IC50 of less than 10 nM.
For the compound `CC1(C)Oc2ncnc(N)c2N=C1c1ccc([C@H]2CC[C@H](CP(=O)(O)c3ccccc3)CC2)cc1` [Compound 21], on hDGAT1 (setting [2]), the IC50 is less than 10 nM.
In turn, `CC1(C)Oc2ncnc(N)c2N=C1c1ccc([C@H]2CC[C@H](OP(=O)(O)O)CC2)cc1` [Compound 3] yielded an IC50 on hDGAT1 (setting [2]) of less than 10 nM.
Regarding `CC1(C)Oc2ncnc(N)c2N=C1c1ccc([C@H]2CC[C@H](OP(=O)(O)c3cccs3)CC2)cc1` [Compound 19], the IC50 against hDGAT1 (setting [2]) is less than 10 nM.
In the case of `CP(=O)(O)C[C@H]1CC[C@H](c2ccc(NC(=O)c3nnc(Nc4ccc(F)c(F)c4)o3)cc2)CC1` [Compound 5], in data set [1], the Cmax came out at 3 ng/mL. In addition, the “AUC0-4h of serum TAGs” value with Sprague Dawley rats is “reduced”. At hDGAT1 (setting [2]), the half-inhibitory concentration (IC50) was less than 10 nM.
Turning to `CC1(C)Oc2ncnc(N)c2N=C1c1ccc([C@H]2CC[C@H](CP(=O)(O)C3CC3)CC2)cc1` [Compound 23], on hDGAT1 (setting [2]), the IC50 was less than 10 nM.
Compound `CC(C)COP(=O)(O)O[C@H]1CC[C@H](c2ccc(C3=Nc4c(N)ncnc4OC3(C)C)cc2)CC1` [Compound 8] displayed an IC50 against hDGAT1 (setting [2]) of less than 10 nM.
In turn, `CC1(C)Oc2ncnc(N)c2N=C1c1ccc(C2CCC(OP(=O)(O)Cc3ccccc3)CC2)cc1` (stereo not shown) [Compound 11] showed an IC50 on hDGAT1 (setting [2]) of less than 10 nM.
